One block for each compound: values may come before it. Activity calls are given as the source filed them. The rule behind the calls is not given here.
How the values were obtained:
MCF7 [1] = assay: Cytotoxicity against MCF7 cells assessed as cell viability at 200 uM after 72 hrs by MTT assay; format: functional; conditions: Homo sapiens, MCF7, 72 h; read-out: Activity
MCF7 [2] = assay: Cell cycle arrest in MCF7 cells assessed as accumulation at subG1 phase at 200 uM after 48 hrs by flow cytometry; format: functional, Homo sapiens
MCF7 [3] = assay: Cell cycle arrest in MCF7 cells assessed as accumulation at G0/G1 phase at 200 uM after 48 hrs by flow cytometry; format: functional, Homo sapiens
MCF7 [4] = assay: Cell cycle arrest in MCF7 cells assessed as accumulation at S phase at 200 uM after 48 hrs by flow cytometry; format: functional, Homo sapiens
MCF7 [5] = assay: Cell cycle arrest in MCF7 cells assessed as accumulation at G2/M phase at 200 uM after 48 hrs by flow cytometry; format: functional, Homo sapiens
MCF7 [6] = assay: Cell cycle arrest in MCF7 cells assessed as accumulation at subG1 phase at 200 uM after 72 hrs by flow cytometry; format: functional, Homo sapiens
MCF7 [7] = assay: Cell cycle arrest in MCF7 cells assessed as accumulation at G0/G1 phase at 200 uM after 72 hrs by flow cytometry; format: functional, Homo sapiens
MCF7 [8] = assay: Cell cycle arrest in MCF7 cells assessed as accumulation at S phase at 200 uM after 72 hrs by flow cytometry; format: functional, Homo sapiens
MCF7 [9] = assay: Cell cycle arrest in MCF7 cells assessed as accumulation at G2/M phase at 200 uM after 72 hrs by flow cytometry; format: functional, Homo sapiens
MCF7 [10] = assay: Decrease in HER2 expression in MCF7 cells at 200 uM after 18 hrs; format: functional, cell-based; conditions: Homo sapiens
MCF7 [11] = assay: Decrease in cdk4 protein level in MCF7 cells at 200 uM after 18 hrs; format: functional, cell-based; conditions: Homo sapiens
MCF7 [12] = assay: Growth inhibition of MCF7 cells after 72 hrs by MTT assay; format: functional, cell-based; conditions: Homo sapiens, MCF7, 72 h
MELN [13] = assay: Inhibition of estradiol-induced ER-mediated transcription in MELN cells by measuring luciferase activity at 200 uM after 18 hrs; format: functional, cell-based; conditions: Homo sapiens
MELN [14] = assay: Inhibition of basal ER-mediated transcription activity in MELN cells by measuring luciferase activity at 2 uM after 18 hrs; format: functional, cell-based; conditions: Homo sapiens
MELN [15] = assay: Inhibition of estradiol-induced ER-mediated transcription in MELN cells by measuring luciferase activity at 2 uM after 18 hrs; format: functional, cell-based; conditions: Homo sapiens
MCF7 [16] = assay: Decrease in Raf1 expression in MCF7 cells at 200 uM after 18 hrs; format: functional, cell-based; conditions: Homo sapiens

SMILES: COc1ccc2c(O)c(NC(=O)c3ccc4c(c3)CCC(C)(C)O4)c(=O)oc2c1C
viability at 200 µM (MCF7 [1]): 75% | Activity (MCF7 [2]): 3.3% | Activity (MCF7 [3]): 71.9% | Activity (MCF7 [4]): 16.2% | Activity (MCF7 [5]): 10.7% | Activity (MCF7 [6]): 2.5% | Activity (MCF7 [7]): 85.4% | Activity (MCF7 [8]): 8.5% | Activity (MCF7 [9]): 6.5%

SMILES: COc1ccc(C(=O)Nc2c(OC)c3ccc(OC)c(C)c3oc2=O)cc1CC=C(C)C
Activity (MCF7 [10]): Active | Activity (MCF7 [2]): 3.6% | Activity (MCF7 [3]): 73.3% | Activity (MCF7 [4]): 14.4% | Activity (MCF7 [5]): 10.8% | Activity (MCF7 [6]): 3.8% | Activity (MCF7 [7]): 82.1% | Activity (MCF7 [8]): 10.2% | Activity (MCF7 [9]): 6.9%

SMILES: COc1ccc2c(OC)c(NC(=O)c3ccc4c(c3)CCC(C)(C)O4)c(=O)oc2c1C
viability at 200 µM (MCF7 [1]): 75% | Activity (MCF7 [2]): 7.5% | Activity (MCF7 [3]): 56.7% | Activity (MCF7 [4]): 28.4% | Activity (MCF7 [5]): 11.9% | Activity (MCF7 [6]): 3.8% | Activity (MCF7 [7]): 77.8% | Activity (MCF7 [8]): 14.8% | Activity (MCF7 [9]): 7.2%

SMILES: Cc1c(O)ccc2c(O)c(NC(=O)c3ccc4c(c3)CCC(C)(C)O4)c(=O)oc12 [CYCLONOVOBIOCIC ACID]
viability at 200 µM (MCF7 [1]): 75% | Activity (MCF7 [2]): 7.7% | Activity (MCF7 [3]): 46.5% | Activity (MCF7 [4]): 36.2% | Activity (MCF7 [5]): 14.4% | Activity (MCF7 [6]): 6% | Activity (MCF7 [7]): 58.1% | Activity (MCF7 [8]): 23.4% | Activity (MCF7 [9]): 18.6% | Activity (MCF7 [11]): Active

IC50 (MCF7 [12]): 260 µM
SMILES: CO[C@@H]1[C@@H](OC(N)=O)[C@@H](O)[C@H](Oc2ccc3c(O)c(NC(=O)c4ccc(O)c(CC=C(C)C)c4)c(=O)oc3c2C)OC1(C)C [NOVOBIOCIN]
Activity (MCF7 [2]): 5.9% | Activity (MCF7 [3]): 59.9% | Activity (MCF7 [4]): 19.7% | Activity (MCF7 [5]): 19.3% | Activity (MCF7 [6]): 9.8% | Activity (MCF7 [7]): 58.3% | Activity (MCF7 [8]): 21.3% | Activity (MCF7 [9]): 19.3% | Activity (MELN [13]): Active

SMILES: CC1(C)[C@@H](O)CC[C@]2(C)[C@H]3C(=O)C=C4[C@@H]5C[C@@](C)(C(=O)O)CC[C@]5(C)CC[C@@]4(C)[C@]3(C)CC[C@@H]12
Activity (MELN [14]): Active | Activity (MELN [15]): Active

SMILES: Cc1ccc(S(=O)(=O)Oc2ccc3c(-c4ccc(Cl)cc4)c(NC(=O)c4ccc5c(c4)CCC(C)(C)O5)c(=O)oc3c2C)cc1
Activity (MCF7 [2]): 3.8% | Activity (MCF7 [3]): 70.4% | Activity (MCF7 [4]): 19.7% | Activity (MCF7 [5]): 9.9% | Activity (MCF7 [6]): 4.9% | Activity (MCF7 [7]): 74.1% | Activity (MCF7 [8]): 17.1% | Activity (MCF7 [9]): 7.5% | Activity (MCF7 [16]): Active

SMILES: COc1ccc(-c2c(NC(=O)c3ccc4c(c3)CCC(C)(C)O4)c(=O)oc3c(C)c(OC)ccc23)cc1
Activity (MCF7 [2]): 3.7% | Activity (MCF7 [3]): 71% | Activity (MCF7 [4]): 15.3% | Activity (MCF7 [5]): 11.5% | Activity (MCF7 [6]): 4% | Activity (MCF7 [7]): 81.3% | Activity (MCF7 [8]): 9.5% | Activity (MCF7 [9]): 7.7%

Source: ChEMBL document CHEMBL1138304, “New novobiocin analogues as antiproliferative agents in breast cancer cells and potential inhibitors of heat shock protein 90” (J Med Chem, 2007)
